# Where a SMILES comes first, the peptide text is derived from it. Bridges are numbered along the chain shown (N, C = ends). [ ]: non-standard residue; d: D form. Trp(1-CH2COOH) = N[C@@H](Cc1cn(CC(=O)O)c2ccccc12)C(=O)O; Lys(Me2) = CN(C)CCCC[C@H](N)C(=O)O; Hyp = O=C(O)[C@@H]1C[C@@H](O)CN1; NMeNle = CCCC[C@H](NC)C(=O)O; NMeS = CN[C@@H](CO)C(=O)O; Pip = O=C(O)[C@@H]1CCCCN1; dPip = O=C(O)[C@H]1CCCCN1; Dab = NCC[C@H](N)C(=O)O; Dap = NC[C@H](N)C(=O)O
# Target: T1, Human PD-L1/PD-1 (Homo sapiens, UniProt Q9NZQ7)
# T1 construct: TVMV protease cleavage site (C); made in house; host or cells: HEK293T cells
# Test: HTRF Human PD-L1/PD-1 binding assay (PD-1-Ig/PD-L1-His)
# Details: PD-L1-His 10 nM, PD-1-Ig 20 nM; class symbol; read-out: HTRF Human PD-L1/PD-1 Binding Assay IC50 Range
# Procedure, shortened: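 Competition of macrocyclic peptides for PD-1/PD-L1 binding measured by HTRF in dPBS containing 0.1% BSA and 0.05% Tween-20. Compound and PD-L1-His (10 nM final) incubated 15 min before PD-1-Ig (20 nM final) and a further 15 min.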
# T1 sequence (Q9NZQ7 with tags, fused parts or gaps): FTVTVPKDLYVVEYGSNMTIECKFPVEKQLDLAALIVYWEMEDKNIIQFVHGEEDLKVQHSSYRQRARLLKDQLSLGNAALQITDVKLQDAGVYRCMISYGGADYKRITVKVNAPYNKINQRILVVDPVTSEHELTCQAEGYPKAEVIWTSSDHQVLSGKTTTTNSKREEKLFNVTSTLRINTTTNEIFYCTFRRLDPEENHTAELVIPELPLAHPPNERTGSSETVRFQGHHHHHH
row,Structure (SMILES),IC50
1,CCCC[C@H]1C(=O)N(C)[C@@H](CCCC)C(=O)N[C@@H](CC(C)C)C(=O)N[C@H](C(=O)NCC(N)=O)CSCC(=O)N[C@@H](Cc2ccc(O)cc2)C(=O)N2CCCC[C@H]2C(=O)N[C@@H](CC(=O)O)C(=O)N2CCC[C@H]2C(=O)N[C@@H](Cc2cnc[nH]2)C(=O)N[C@@H](CCC(N)=O)C(=O)N2C[C@H](O)C[C@H]2C(=O)N[C@@H](Cc2c[nH]c3ccccc23)C(=O)N[C@@H](CO)C(=O)N[C@@H](Cc2cn(CC(=O)O)c3ccccc23)C(=O)N1C [Example 1293] ({CH2CO}-Y[Pip]DPHQ[Hyp]WS[Trp(1-CH2COOH)][NMeNle][NMeNle]LCG-NH2; thioether N-14),10 to 99.9 nM
2,CCCC[C@H]1C(=O)N(C)[C@@H](CCCC)C(=O)N[C@@H](CCN)C(=O)N[C@H](C(=O)NCC(N)=O)CSCC(=O)N[C@@H](Cc2ccc(O)cc2)C(=O)N2CCCC[C@H]2C(=O)N[C@@H](CC(=O)O)C(=O)N2CCC[C@H]2C(=O)N[C@@H](Cc2cnc[nH]2)C(=O)N[C@@H](CCC(=O)O)C(=O)N2C[C@H](O)C[C@H]2C(=O)N[C@@H](Cc2c[nH]c3ccccc23)C(=O)N[C@@H](CO)C(=O)N[C@@H](Cc2cn(CC(=O)O)c3ccccc23)C(=O)N1C [Example 1294] ({CH2CO}-Y[Pip]DPHE[Hyp]WS[Trp(1-CH2COOH)][NMeNle][NMeNle][Dab]CG-NH2; thioether N-14),10 to 99.9 nM
3,CCCC[C@H]1C(=O)N(C)[C@@H](CCCC)C(=O)N[C@@H](CN)C(=O)N[C@H](C(=O)NCC(N)=O)CSCC(=O)N[C@@H](Cc2ccc(O)cc2)C(=O)N2CCCC[C@H]2C(=O)N[C@@H](CC(N)=O)C(=O)N2CCC[C@H]2C(=O)N[C@@H](CN)C(=O)N[C@@H](CCC(=O)O)C(=O)N2C[C@H](O)C[C@H]2C(=O)N[C@@H](Cc2c[nH]c3ccccc23)C(=O)N[C@@H](CCN)C(=O)N[C@@H](Cc2cn(CC(=O)O)c3ccccc23)C(=O)N1C [Example 1295] ({CH2CO}-Y[Pip]NP[Dap]E[Hyp]W[Dab][Trp(1-CH2COOH)][NMeNle][NMeNle][Dap]CG-NH2; thioether N-14),10 to 99.9 nM
4,CCCC[C@H]1C(=O)N(C)[C@@H](CCCC)C(=O)N[C@@H](CN)C(=O)N[C@H](C(=O)NCC(N)=O)CSCC(=O)N[C@@H](Cc2ccc(O)cc2)C(=O)N2CCCC[C@H]2C(=O)N[C@@H](CC(N)=O)C(=O)N2CCC[C@H]2C(=O)N[C@@H](Cc2cnc[nH]2)C(=O)N[C@@H](CCC(N)=O)C(=O)N2C[C@H](O)C[C@H]2C(=O)N[C@@H](Cc2c[nH]c3ccccc23)C(=O)N[C@@H](CCN)C(=O)N[C@@H](Cc2cn(CC(=O)O)c3ccccc23)C(=O)N1C [Example 1301] ({CH2CO}-Y[Pip]NPHQ[Hyp]W[Dab][Trp(1-CH2COOH)][NMeNle][NMeNle][Dap]CG-NH2; thioether N-14),10 to 99.9 nM
5,CCCC[C@H]1C(=O)N(C)[C@@H](CCCC)C(=O)N[C@@H](CCC(=O)O)C(=O)N[C@H](C(=O)NCC(N)=O)CSCC(=O)N[C@@H](Cc2ccc(O)cc2)C(=O)N2CCCC[C@H]2C(=O)N[C@@H](CC(N)=O)C(=O)N2CCC[C@H]2C(=O)N[C@@H](Cc2cnc[nH]2)C(=O)N[C@@H](CCCCN)C(=O)N2C[C@H](O)C[C@H]2C(=O)N[C@@H](Cc2c[nH]c3ccccc23)C(=O)N[C@@H](CCCCN)C(=O)N[C@@H](Cc2cn(CC(=O)O)c3ccccc23)C(=O)N1C [Example 1303] ({CH2CO}-Y[Pip]NPHK[Hyp]WK[Trp(1-CH2COOH)][NMeNle][NMeNle]ECG-NH2; thioether N-14),10 to 99.9 nM
6,CCCC[C@H]1C(=O)N(C)[C@@H](CCCC)C(=O)N[C@@H](CC(C)C)C(=O)N[C@H](C(=O)NCC(N)=O)CSCC(=O)N[C@@H](Cc2ccc(O)cc2)C(=O)N2CCCC[C@H]2C(=O)N[C@@H](CC(N)=O)C(=O)N2CCC[C@H]2C(=O)N[C@@H](CO)C(=O)N[C@@H](CCC(N)=O)C(=O)N2C[C@H](O)C[C@H]2C(=O)N[C@@H](Cc2c[nH]c3ccccc23)C(=O)N[C@@H](CO)C(=O)N[C@@H](Cc2cn(CC(=O)O)c3ccccc23)C(=O)N1C [Example 1304] ({CH2CO}-Y[Pip]NPSQ[Hyp]WS[Trp(1-CH2COOH)][NMeNle][NMeNle]LCG-NH2; thioether N-14),10 to 99.9 nM
7,CCCC[C@H]1C(=O)N(C)[C@@H](CCCC)C(=O)N[C@@H](CCCCN(C)C)C(=O)N[C@H](C(=O)NCC(N)=O)CSCC(=O)N[C@@H](Cc2ccc(O)cc2)C(=O)N2CCCC[C@H]2C(=O)N[C@@H](CC(=O)O)C(=O)N2CCC[C@H]2C(=O)N[C@@H](CN)C(=O)N[C@@H](CCC(=O)O)C(=O)N2C[C@H](O)C[C@H]2C(=O)N[C@@H](Cc2c[nH]c3ccccc23)C(=O)N[C@@H](CO)C(=O)N[C@@H](Cc2c[nH]c3ccccc23)C(=O)N1C [Example 1306] ({CH2CO}-Y[Pip]DP[Dap]E[Hyp]WSW[NMeNle][NMeNle][Lys(Me2)]CG-NH2; thioether N-14),10 to 99.9 nM
8,CCCC[C@H]1C(=O)N(C)[C@@H](CO)C(=O)N[C@@H](CCC(=O)O)C(=O)N[C@H](C(=O)NCC(N)=O)CSCC(=O)N[C@@H](Cc2ccc(O)cc2)C(=O)N2CCCC[C@H]2C(=O)N[C@@H](CC(=O)O)C(=O)N2CCC[C@H]2C(=O)N[C@@H](CN)C(=O)N[C@@H](CCC(=O)O)C(=O)N2C[C@H](O)C[C@H]2C(=O)N[C@@H](Cc2c[nH]c3ccccc23)C(=O)N[C@@H](CO)C(=O)N[C@@H](Cc2c[nH]c3ccccc23)C(=O)N1C [Example 1309] ({CH2CO}-Y[Pip]DP[Dap]E[Hyp]WSW[NMeNle][NMeS]ECG-NH2; thioether N-14),10 to 99.9 nM

# Further lines, results first:
row,IC50,Structure (SMILES)
1,1 to 9.9 nM,CCCC[C@H]1C(=O)N(C)[C@@H](CCCC)C(=O)N[C@@H](CC(C)C)C(=O)N[C@H](C(=O)NCC(N)=O)CSCC(=O)N[C@@H](Cc2ccc(O)cc2)C(=O)N2CCCC[C@@H]2C(=O)N[C@@H](CC(=O)O)C(=O)N2CCC[C@H]2C(=O)N[C@@H](Cc2cnc[nH]2)C(=O)N[C@@H](CCCCN)C(=O)N2C[C@H](O)C[C@H]2C(=O)N[C@@H](Cc2c[nH]c3ccccc23)C(=O)N[C@@H](CCCCN)C(=O)N[C@@H](Cc2cn(CC(=O)O)c3ccccc23)C(=O)N1C [Example 1296] ({CH2CO}-Y[dPip]DPHK[Hyp]WK[Trp(1-CH2COOH)][NMeNle][NMeNle]LCG-NH2; thioether N-14)
2,1 to 9.9 nM,CCCC[C@H]1C(=O)N(C)[C@@H](CCCC)C(=O)N[C@@H](CC(C)C)C(=O)N[C@H](C(=O)NCC(N)=O)CSCC(=O)N[C@@H](Cc2ccc(O)cc2)C(=O)N2CCCC[C@H]2C(=O)N[C@@H](CC(N)=O)C(=O)N2CCC[C@H]2C(=O)N[C@@H](CN)C(=O)N[C@@H](CC(C)C)C(=O)N2C[C@H](O)C[C@H]2C(=O)N[C@@H](Cc2c[nH]c3ccccc23)C(=O)N[C@@H](CCN)C(=O)N[C@@H](Cc2cn(CC(=O)O)c3ccccc23)C(=O)N1C [Example 1297] ({CH2CO}-Y[Pip]NP[Dap]L[Hyp]W[Dab][Trp(1-CH2COOH)][NMeNle][NMeNle]LCG-NH2; thioether N-14)
3,1 to 9.9 nM,CCCC[C@H]1C(=O)N(C)[C@@H](CCCC)C(=O)N[C@@H](CN)C(=O)N[C@H](C(=O)NCC(N)=O)CSCC(=O)N[C@@H](Cc2ccc(O)cc2)C(=O)N2CCCC[C@H]2C(=O)N[C@@H](CC(N)=O)C(=O)N2CCC[C@H]2C(=O)N[C@@H](Cc2cnc[nH]2)C(=O)N[C@@H](CCC(N)=O)C(=O)N2C[C@H](O)C[C@H]2C(=O)N[C@@H](Cc2c[nH]c3ccccc23)C(=O)N[C@@H](CCN)C(=O)N[C@@H](Cc2cn(CC(=O)O)c3ccccc23)C(=O)N1C [Example 1298] ({CH2CO}-Y[Pip]NPHQ[Hyp]W[Dab][Trp(1-CH2COOH)][NMeNle][NMeNle][Dap]CG-NH2; thioether N-14)
4,1 to 9.9 nM,CCCC[C@H]1C(=O)N(C)[C@@H](CCCC)C(=O)N[C@@H](CC(C)C)C(=O)N[C@H](C(=O)NCC(N)=O)CSCC(=O)N[C@@H](Cc2ccc(O)cc2)C(=O)N2CCCC[C@H]2C(=O)N[C@@H](CC(N)=O)C(=O)N2CCC[C@H]2C(=O)N[C@@H](CN)C(=O)N[C@@H](CCC(=O)O)C(=O)N2C[C@H](O)C[C@H]2C(=O)N[C@@H](Cc2c[nH]c3ccccc23)C(=O)N[C@@H](CCN)C(=O)N[C@@H](Cc2cn(CC(=O)O)c3ccccc23)C(=O)N1C [Example 1299] ({CH2CO}-Y[Pip]NP[Dap]E[Hyp]W[Dab][Trp(1-CH2COOH)][NMeNle][NMeNle]LCG-NH2; thioether N-14)
5,1 to 9.9 nM,CCCC[C@H]1C(=O)N(C)[C@@H](CCCC)C(=O)N[C@@H](CN)C(=O)N[C@H](C(=O)NCC(N)=O)CSCC(=O)N[C@@H](Cc2ccc(O)cc2)C(=O)N2CCCC[C@H]2C(=O)N[C@@H](CC(N)=O)C(=O)N2CCC[C@H]2C(=O)N[C@@H](CN)C(=O)N[C@@H](CCC(=O)O)C(=O)N2C[C@H](O)C[C@H]2C(=O)N[C@@H](Cc2c[nH]c3ccccc23)C(=O)N[C@@H](CO)C(=O)N[C@@H](Cc2cn(CC(=O)O)c3ccccc23)C(=O)N1C [Example 1300] ({CH2CO}-Y[Pip]NP[Dap]E[Hyp]WS[Trp(1-CH2COOH)][NMeNle][NMeNle][Dap]CG-NH2; thioether N-14)
6,1 to 9.9 nM,CCCC[C@H]1C(=O)N(C)[C@@H](CCCC)C(=O)N[C@@H](CC(=O)O)C(=O)N[C@H](C(=O)NCC(N)=O)CSCC(=O)N[C@@H](Cc2ccc(O)cc2)C(=O)N2CCCC[C@H]2C(=O)N[C@@H](CC(=O)O)C(=O)N2CCC[C@H]2C(=O)N[C@@H](Cc2cnc[nH]2)C(=O)N[C@@H](CCCCN)C(=O)N2C[C@H](O)C[C@H]2C(=O)N[C@@H](Cc2c[nH]c3ccccc23)C(=O)N[C@@H](CCCCN)C(=O)N[C@@H](Cc2cn(CC(=O)O)c3ccccc23)C(=O)N1C [Example 1302] ({CH2CO}-Y[Pip]DPHK[Hyp]WK[Trp(1-CH2COOH)][NMeNle][NMeNle]DCG-NH2; thioether N-14)
7,1 to 9.9 nM,CCCC[C@H]1C(=O)N(C)[C@@H](CCCC)C(=O)N[C@@H](CCC(=O)O)C(=O)N[C@H](C(=O)NCC(N)=O)CSCC(=O)N[C@@H](Cc2ccc(O)cc2)C(=O)N2CCCC[C@H]2C(=O)N[C@@H](CC(N)=O)C(=O)N2CCC[C@H]2C(=O)N[C@@H](CO)C(=O)N[C@@H](CC(C)C)C(=O)N2C[C@H](O)C[C@H]2C(=O)N[C@@H](Cc2c[nH]c3ccccc23)C(=O)N[C@@H](CCN)C(=O)N[C@@H](Cc2cn(CC(=O)O)c3ccccc23)C(=O)N1C [Example 1305] ({CH2CO}-Y[Pip]NPSL[Hyp]W[Dab][Trp(1-CH2COOH)][NMeNle][NMeNle]ECG-NH2; thioether N-14)

# From patent publication US10538555B2, “Macrocyclic inhibitors of the PD-1/PD-L1 and CD80(B7-1)/PD-L1 protein/protein interactions” (BRISTOL-MYERS SQUIBB COMPANY, priority 2014, dated 2020)
